Measured values reported in paper PMC6143625, “A high throughput screen for next-generation leads targeting malaria parasite transmission” (Nature Communications, 2018).

Columns and labels:
[1] = tested on: P. falciparum stage V male gametocytes (male gamete formation); experiment: P. falciparum dual gamete formation assay (Pf DGFA), male readout (exflagellation), 48 h carry-over format; format: cell-based, Plasmodium falciparum NF54; conditions: primary screen, 2 uM, 48 h incubation, single replicate
Protocol: (§1) P. falciparum NF54 strain (originally isolated from an imported malaria case in the Netherlands in the 1980s; BEI Resources, cat. no. MRA-1000) asexual and sexual stages culture was performed as previously described. Gametocyte cultures were initiated at 1% asexual ring stage parasitaemia and 4% haematocrit in 40 ml final volume. To induce gametocyte production, complete culture medium (CM) (RPMI 1640 supplemented with 25 mM HEPES, 50 µg ml^−1 hypoxanthine, 2 g l^−1 NaHCO3 and 10% pooled human male type A+ serum) was replaced daily for 14 days without fresh erythrocyte addition. Human serum was obtained from Interstate Blood Bank, A^+ serotype; no aspirin 2 h before drawing and no antimalarials 2 weeks before drawing. On day 14 after culture induction, gametocyte production was assessed by thin smear and Giemsa staining, and exflagellation accurately counted in a haemocytometer. Gametocyte cultures with >0.2% exflagellation (compared to total erythrocyte cell number) were deemed acceptable for use in the Pf DGFA. Note, all human biological samples were sourced ethically and their research use was in accord with the terms of the informed consents under an IRB/EC approved protocol.
(§2) In screening mode, the assay was performed as described in Delves et al.[35] with a mean Z′ factor of 0.56 ± 0.14 (SD) (male) and 0.71 ± 0.17 (SD) (female). Pooled mature gametocyte cultures with the capacity to yield >0.2% exflagellation (of total cells) were diluted in CM to 14 million cells per ml and so that 700,000 cells were dispensed in 50 µl into each well of the warmed 384-well screening plates. Parasites were incubated in the plates with compounds for 48 h in a humidified chamber under 92%N2/5% CO2/3% O2 gas mix before gamete formation was triggered by addition of 10 µl per well ookinete medium (RPMI 1640 supplemented with 25 mM HEPES, 50 µg ml^−1 hypoxanthine, 2 g l^−1 NaHCO3, 100 µM xanthurenic acid) containing 0.5 µg ml^−1 anti-Pfs25 clone 4B7 (BEI Resources, cat. no. MRA-315) conjugated to the fluorophore Cy3 (GE Healthcare), and also by cooling the plate at 4 °C for 4 min and then a further 5 min at 28 °C. Exflagellation was recorded immediately by brightfield microscopy using a Nikon Ti-E widefield microscope at ×4 objective, ×1.5 zoom, recording a 10-frame video time-lapse over 2 s for each well. Afterwards, plates were incubated in the dark at 28 °C for a further 24 h to allow female gametes to maximally express Pfs25 on their surface. Female gamete formation was recorded by single-image fluorescence microscopy using the same microscope and magnification as above. Exflagellation and female gamete formation were quantified by specific algorithms designed with the open-source ICY Image Analysis software.
(§3) Assay performance statistics, such as signal to background ratio, Z′ and robust 3×SD activity cut-off were calculated using templates in ActivityBase XE (IDBS, Guilford, Surrey, UK). Hit population analysis and visualisation were conducted using Spotfire DecisionSite (Spotfire, Inc., Somerville, Massachusetts). The pIC50 (−log IC50) values were obtained using the ActivityBase XE nonlinear regression function in the full curve analysis bundle. In screening mode, the Pf DGFA achieved a mean Z′ factor of 0.56 ± 0.14 (SD) (male) and 0.71 ± 0.17 (SD) (female).

[2] = tested on: P. falciparum stage V female gametocytes (female gamete formation); experiment: P. falciparum dual gamete formation assay (Pf DGFA), female readout (Pfs25 expression), 48 h carry-over format; format: cell-based, Plasmodium falciparum NF54; conditions: primary screen, 2 uM, 48 h incubation, single replicate
Protocol: as §1
as §2, with “Parasites were incubated in the plates with compounds for 48 h in a humidified chamber under” left out
as §3

Compound	%Inhibition Male @2uM [1] [%]	%Inhibition Female @2uM [2] [%]
CN(C)C(=O)CN1CCC(c2c(C(N)=O)sc3ncccc23)C1 (centres unmarked) [DDD01056829]	34.06	<30
CN1CC2(CCC(C(=O)N3CCOCC3)CC2)Oc2ccccc2C1=O (centres unmarked) [DDD01056893]	30.45	<30
O=C(NC1CC1)[C@H]1CN(Cc2ccccc2)C[C@@H]1C(=O)c1ccccc1 [DDD01056910]	31.76	<30
CS(=O)(=O)N1CCCCC1c1ccc(Nc2cnccn2)nc1 (centres unmarked) [DDD01057097]	34.23	<30
CN1CCOC(C)(C(=O)Nc2nccs2)C1 (centres unmarked) [DDD01057393]	32.46	<30
O=C(Cn1cnc2cc3c(cc21)OCCCO3)NCCc1ccccc1 [DDD01057871]	<30	36.66
COc1cccc(CC(=O)N2CCCC2c2nc(=O)c(C)c(C)[nH]2)c1 (centres unmarked) [DDD01059601]	<30	33.02
CNc1cncc(C2CCCN2c2cc(C)ncn2)n1 (centres unmarked) [DDD01059901]	44.44	<30
CC(=O)N1CCCC(c2ccccn2)C1 (centres unmarked) [DDD01059909]	30.93	<30
CN(C)C(=O)CN1CCC(c2cccc(Cc3ccc(F)cc3)n2)CC1 [DDD01060228]	31.41	<30
CC(C)CC(=O)N1CCN(Cc2cc(-c3ccncc3)nn2C)CC1 [DDD01060230]	<30	78.93
OC1(Cn2ccc3ncccc32)CCN(Cc2cc(F)cc(F)c2)CC1 [DDD01060275]	30.37	<30
Cc1cncc(C(=O)N[C@@H]2CC[C@@H](N3CCOCC3)[C@@H]2O)c1 [DDD01060350]	<30	35.23
CC(=O)N1CCN([C@@H]2CC[C@@H](NC(=O)c3cc(C)cs3)[C@H]2O)CC1 [DDD01060352]	<30	32.18
CC(C)(N)C(=O)N1CCCC1c1cncc(Oc2ccccc2)n1 (centres unmarked) [DDD01060400]	<30	49.04
Cc1nc2ccc(C(=O)N3CCn4c(nnc4C4CC4)C3)cc2nc1C [DDD01060815]	<30	31.88
O=C(C1CCCCC1)N1CCC(c2[nH]nc3nccnc23)CC1 [DDD01060967]	<30	38.46
O=C(c1cn[nH]n1)N1CCCC1C1CCCCC1 (centres unmarked) [DDD01061770]	<30	30.76
Cc1noc(C)c1CNC1CCN(c2ccccc2OC(F)F)C1 (centres unmarked) [DDD01061833]	<30	39.11
CN(C)c1ccc(CNC(=O)Nc2ccc(S(=O)(=O)C(F)F)cc2)cc1 [DDD01062359]	<30	41.45
Cc1ccc(OCCCC(=O)Nc2nonc2C)cc1C [DDD01063175]	<30	30.83
Cc1noc(C(C)Nc2ccc3oc(C)nc3c2)n1 (centres unmarked) [DDD01064591]	<30	37.30
CC1CN(C(=O)c2cnn(-c3ccccn3)c2C(C)C)CC(C)(C)O1 (centres unmarked) [DDD01064602]	<30	40.46

Compound	%Inhibition Male @2uM [1] [%]	%Inhibition Female @2uM [2] [%]
CCOc1nnc(CN2CCN(CCOC)C(C)C2)s1 (centres unmarked) [DDD01065018]	30.92	<30
c1cc(NCc2ccsc2)cc(-c2nnc[nH]2)c1 [DDD01065418]	31.81	<30
Cc1nc(C)c(C(=O)N2CCc3c(Cl)cccc32)o1 [DDD01065842]	32.65	<30
Cc1[nH]c(C2(N)CCCCC2)nc(=O)c1C [DDD01066687]	<30	32.19
Cc1ccc(N2CCCC(N(C)Cc3cc(C)on3)C2)nn1 (centres unmarked) [DDD01069945]	<30	39.02
COc1cc(CNC(C)c2cccc(Cl)c2)cc(OC)c1OC (centres unmarked) [DDD01069994]	35.70	<30
COCc1noc(C2(c3cccc(Cl)c3)CCOCC2)n1 [DDD01070409]	71.92	<30
O=C(CNc1cc2c(cc1Cl)OCCO2)NCC(F)(F)F [DDD01070591]	<30	39.90
CCS(=O)(=O)NC1CCCN(c2ccc(F)cc2C)C1=O (centres unmarked) [DDD01074148]	<30	33.10
COC(=O)C1CCCN1C(=O)c1ccc(-n2nc(C)cc2C)cc1 (centres unmarked) [DDD01075977]	<30	33.22
Fc1ccc(-c2nnc(CNC3CCc4ncnn4C3)o2)cc1 (centres unmarked) [DDD01076055]	<30	36.38
Cc1noc(CS(=O)(=O)C(C)C(=O)N(C)c2ccccc2)n1 (centres unmarked) [DDD01076606]	31.49	<30
CN(C)C(=O)c1ccc(NCCNc2ccc3ccccc3n2)nc1 [DDD01076923]	31.80	<30
CN(CC(N)=O)C(=O)C1Cc2cc(Cl)ccc2O1 (centres unmarked) [DDD01077287]	<30	46.87
O=S(=O)(NC1CCCCC12OCCO2)c1cc(F)cc(F)c1 (centres unmarked) [DDD01077321]	<30	41.54
CC(CCc1ccccc1)N1CCC(C(=O)Nc2cnccn2)CC1 (centres unmarked) [DDD01077885]	52.25	<30
CC(C)c1nsc(N2CCc3sccc3C2)n1 [DDD01078291]	38.07	<30
CSc1ccc(OCCN2CCNC(=O)CC2)cc1 [DDD01078342]	<30	31.10
CC(CNC(=O)c1cnc[nH]1)Oc1ccc(Cl)cc1 (centres unmarked) [DDD01078520]	<30	32.98
Cc1cc(C)c(C(=O)N2CCc3c(ncn3CCc3ccccc3)C2)[nH]1 [DDD01078816]	<30	31.51
CCS(=O)(=O)c1ccc(N2CCC(NC(C)=O)CC2)cc1 [DDD01080141]	<30	30.47
CCN(CC)CC(=O)NCCc1csc(N2CCCC2)n1 [DDD01080188]	<30	40.13
Cc1ccc(C2COCCN2C(=O)c2ccc(CN(C)C)cc2)o1 (centres unmarked) [DDD01080189]	<30	41.68
